Laboratory results: patent publication US20140045823A1 (Neurocrine Biosciences, Inc., priority 2012, published 2014)

Molecular target: T1, human GPR119 (Homo sapiens, UniProt Q8TDV5)
T1 construct: expression vector for human GPR119 cDNA (Acc. No. NP_848566); expressed in transfected cells; Min-6/hGPR119
T1 sequence (Q8TDV5 1-335): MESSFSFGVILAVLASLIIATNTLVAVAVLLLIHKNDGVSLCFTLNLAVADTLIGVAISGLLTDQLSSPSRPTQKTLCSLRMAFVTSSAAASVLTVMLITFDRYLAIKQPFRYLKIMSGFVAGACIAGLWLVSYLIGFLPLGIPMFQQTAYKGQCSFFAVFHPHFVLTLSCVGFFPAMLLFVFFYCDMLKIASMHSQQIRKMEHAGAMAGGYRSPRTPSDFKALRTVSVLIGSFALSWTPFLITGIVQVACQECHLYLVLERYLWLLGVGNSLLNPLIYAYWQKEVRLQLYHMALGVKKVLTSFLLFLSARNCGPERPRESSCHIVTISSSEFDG
Assay: AlphaScreen cAMP assay in MIN6 cells stably transfected with human GPR119
Format: cell-based
Conditions: Min-6/hGPR119 cells, 45 min at room temperature
How it was run: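 MIN6 cells stably expressing human GPR119, seeded 10000/well and grown 24 h, were exposed to compound in pH 7.4 buffer with 0.5 mM IBMX, 0.1% BSA and 1% DMSO for 45 min at room temperature. Intracellular cAMP then measured by AlphaScreen.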

SMILES	EC50 [nM]
COC[C@@H]1CCCN1C(=O)Cc1ccc(-c2ncc(C(=O)N(C3CC3)C3CCN(C(=O)OC(C)(C)C)CC3)cn2)cc1 [Example 212, 4-[Cyclopropyl-(2-{4-[2-(2-methoxymethyl-pyrrolidin-1-yl)-2-oxo-ethyl]-phenyl}-pyrimidine-5-carbonyl)-amino]-piperidine-1-carboxylic acid tert-butyl ester]	350
CC(C)(C)OC(=O)N1CCC(N(C(=O)c2cnc(-c3ccc(CC(=O)NCc4ccccn4)cc3)nc2)C2CC2)CC1 [Example 215, 4-{Cyclopropyl-[2-(4-{[(pyridin-2-ylmethyl)-carbamoyl]-methyl}-phenyl)-pyrimidine-5-carbonyl]-amino}-piperidine-1-carboxylic acid tert-butyl ester]	393
COC1CN(C(=O)Cc2ccc(-c3ncc(C(=O)N(C4CC4)C4CCN(C(=O)OC(C)(C)C)CC4)cn3)cc2)C1 [Example 216, 4-[Cyclopropyl-(2-{4-[2-(3-methoxy-azetidin-1-yl)-2-oxo-ethyl]-phenyl}-pyrimidine-5-carbonyl)-amino]-piperidine-1-carboxylic acid tert-butyl ester]	424
CN(CC#N)C(=O)Cc1ccc(-c2ncc(C(=O)N(C3CC3)C3CCN(C(=O)OC(C)(C)C)CC3)cn2)cc1 [Example 218, 4-[(2-{4-[(Cyanomethyl-methyl-carbamoyl)-methyl]-phenyl}-pyrimidine-5-carbonyl)-cyclopropyl-amino]-piperidine-1-carboxylic acid tert-butyl ester]	216
CC(C)(C)OC(=O)N1CCC(N(C(=O)c2cnc(-c3ccc(CC(=O)NCC4CCCCO4)cc3)nc2)C2CC2)CC1 (stereo not shown) [Example 219, 4-{Cyclopropyl-[2-(4-{[(tetrahydro-pyran-2-ylmethyl)-carbamoyl]-methyl}-phenyl)-pyrimidine-5-carbonyl]-amino}-piperidine-1-carboxylic acid tert-butyl ester]	375
CN(CC#N)C(=O)c1ccc(-c2ncc(C(=O)N(C3CC3)C3CCN(C(=O)OC(C)(C)C)CC3)cn2)cc1 [Example 221, 4-({2-[4-(Cyanomethyl-methyl-carbamoyl)-phenyl]-pyrimidine-5-carbonyl}-cyclopropyl-amino)-piperidine-1-carboxylic acid tert-buyl ester]	110
CN(C(=O)c1ccc(-c2ncc(C(=O)N(C3CC3)C3CCN(C(=O)OC(C)(C)C)CC3)cn2)cc1)C1CCCOC1 (stereo not shown) [Example 222, 4-[Cyclopropyl-(2-{4-[methyl-(tetrahydro-pyran-3-yl)-carbamoyl]-phenyl}-pyrimidine-5-carbonyl)-amino]-piperidine-1-carboxylic acid tert-butyl ester]	545
CN(CC(C)(C)O)C(=O)c1ccc(-c2ncc(C(=O)N(C3CC3)C3CCN(C(=O)OC(C)(C)C)CC3)cn2)cc1 [Example 223, 4-[Cyclopropyl-(2-{4-[(2-hydroxy-2-methyl-propyl)-methyl-carbamoyl]-phenyl}-pyrimidine-5-carbonyl)-amino]-piperidine-1-carboxylic acid tert-butyl ester]	634
CC(C)(C)OC(=O)N1CCC(N(C(=O)c2cnc(-c3ccc(C(=O)NCC4CCCCO4)cc3)nc2)C2CC2)CC1 (stereo not shown) [Example 225, 4-[Cyclopropyl-(2-{4-[(tetrahydro-pyran-2-ylmethyl)-carbamoyl]-phenyl}-pyrimidine-5-carbonyl)-amino]-piperidine-1-carboxylic acid tert-butyl ester]	185
CC(C)(C)OC(=O)N1CCC(N(C(=O)c2cnc(-c3ccc(C(=O)NCc4cccnc4)cc3)nc2)C2CC2)CC1 [Example 229, 4-[Cyclopropyl-(2-{4-[(pyridin-3-ylmethyl)-carbamoyl]-phenyl}-pyrimidine-5-carbonyl)-amino]-piperidine-1-carboxylic acid tert-butyl ester]	177
CC(C)(C)OC(=O)N1CCC(N(C(=O)c2cnc(-c3ccc(C(=O)Nc4ccnnc4)cc3)nc2)C2CC2)CC1 [Example 231, 4-(Cyclopropyl-{2-[4-(pyridazin-4-ylcarbamoyl)-phenyl]-pyrimidine-5-carbonyl}-amino)-piperidine-1-carboxylic acid tert-butyl ester]	414
CN(CCC#N)C(=O)c1ccc(-c2ncc(C(=O)N(C3CC3)C3CCN(C(=O)OC(C)(C)C)CC3)cn2)cc1F [Example 234, 4-[(2-{4-[(2-Cyano-ethyl)-methyl-carbamoyl]-3-fluoro-phenyl}-pyrimidine-5-carbonyl)-cyclopropyl-amino]-piperidine-1-carboxylic acid tert-butyl ester]	297
COC[C@H]1CCCN1C(=O)Cc1ccc(-c2ncc(C(=O)N(C3CC3)C3CCN(C(=O)OC(C)(C)C)CC3)cn2)cc1 [Example 235, 4-[Cyclopropyl-(2-{4-[2-(2-methoxymethyl-pyrrolidin-1-yl)-2-oxo-ethyl]-phenyl}-pyrimidine-5-carbonyl)-amino]-piperidine-1-carboxylic acid tert-butyl ester]	307

Continued by falling EC50, values first:

EC50 [nM]	SMILES
593	CC(O)c1cccc(NC(=O)Cc2ccc(-c3ncc(C(=O)N(C4CC4)C4CCN(C(=O)OC(C)(C)C)CC4)cn3)cc2)c1 (stereo not shown) [Example 210, 4-{Cyclopropyl-[2-(4-{[3-(1-hydroxy-ethyl)-phenylcarbamoyl]-methyl}-phenyl)-pyrimidine-5-carbonyl]-amino}-piperidine-1-carboxylic acid tert-butyl ester]
561	CC(C)(C)OC(=O)N1CCC(N(C(=O)c2cnc(-c3ccc(CC(=O)N4CCC[C@@H]4C#N)cc3)nc2)C2CC2)CC1 [Example 211, 4-[(2-{4-[2-(2-Cyano-pyrrolidin-1-yl)-2-oxo-ethyl]-phenyl}-pyrimidine-5-carbonyl)-cyclopropyl-amino]-piperidine-1-carboxylic acid tert-butyl ester]
550	CC(C)(C)OC(=O)N1CCC(N(C(=O)c2cnc(-c3ccc(CC(=O)Nc4cccc(CO)c4)cc3)nc2)C2CC2)CC1 [Example 217, 4-[Cyclopropyl-(2-{4-[(3-hydroxymethyl-phenylcarbamoyl)-methyl]-phenyl}-pyrimidine-5-carbonyl)-amino]-piperidine-1-carboxylic acid tert-butyl ester]
521	CC(C)(C)OC(=O)N1CCC(N(C(=O)c2cnc(-c3ccc(CC(=O)NC4CCOCC4)cc3)nc2)C2CC2)CC1 [Example 213, 4-[Cyclopropyl-(2-{4-[(tetrahydro-pyran-4-ylcarbamoyl)-methyl]-phenyl}-pyrimidine-5-carbonyl)-amino]-piperidine-1-carboxylic acid tert-butyl ester]
422	CC(C)(C)OC(=O)N1CCC(N(C(=O)c2cnc(-c3ccc(C(=O)NCc4cccnn4)c(F)c3)nc2)C2CC2)CC1 [Example 232, 4-[Cyclopropyl-(2-{3-fluoro-4-[(pyridazin-3-ylmethyl)-carbamoyl]-phenyl}-pyrimidine-5-carbonyl)-amino]-piperidine-1-carboxylic acid tert-butyl ester]
418	CC(C)(C)OC(=O)N1CCC(N(C(=O)c2cnc(-c3ccc(CC(=O)N4CCC[C@H]4C#N)cc3)nc2)C2CC2)CC1 [Example 214, 4-[(2-{4-[2-(2-Cyano-pyrrolidin-1-yl)-2-oxo-ethyl]-phenyl}-pyrimidine-5-carbonyl)-cyclopropyl-amino]-piperidine-1-carboxylic acid tert-butyl ester]
379	CC(C)(C)OC(=O)N1CCC(N(C(=O)c2cnc(-c3ccc(C(=O)NCc4cocn4)cc3)nc2)C2CC2)CC1 [Example 228, 4-[Cyclopropyl-(2-{4-[(oxazol-4-ylmethyl)-carbamoyl]-phenyl}-pyrimidine-5-carbonyl)-amino]-piperidine-1-carboxylic acid tert-butyl ester]
297	CC(C)(C)OC(=O)N1CCC(N(C(=O)c2cnc(-c3ccc(C(=O)N4CCOCC4)cc3)nc2)C2CC2)CC1 [Example 230, 4-(Cyclopropyl-{2-[4-(morpholine-4-carbonyl)-phenyl]-pyrimidine-5-carbonyl}-amino)-piperidine-1-carboxylic acid tert-butyl ester]
183	CN(CCOCC1CC1)C(=O)c1ccc(-c2ncc(C(=O)N(C3CC3)C3CCN(C(=O)OC(C)(C)C)CC3)cn2)cc1 [Example 220, 4-[Cyclopropyl-(2-{4-[(2-cyclopropylmethoxy-ethyl)-methyl-carbamoyl]-phenyl}-pyrimidine-5-carbonyl)-amino]-piperidine-1-carboxylic acid tert-butyl ester]
179	COC1CN(C(=O)c2ccc(-c3ncc(C(=O)N(C4CC4)C4CCN(C(=O)OC(C)(C)C)CC4)cn3)cc2)C1 [Example 226, 4-(Cyclopropyl-{2-[4-(3-methoxy-azetidine-1-carbonyl)-phenyl]-pyrimidine-5-carbonyl}-amino)-piperidine-1-carboxylic acid tert-butyl ester]
161	CC(C)(C)OC(=O)N1CCC(N(C(=O)c2cnc(-c3ccc(C(=O)NCCOC(F)(F)F)cc3)nc2)C2CC2)CC1 [Example 227, 4-(Cyclopropyl-{2-[4-(2-trifluoromethoxy-ethylcarbamoyl)-phenyl]-pyrimidine-5-carbonyl]-amino)-piperidine-1-carboxylic acid tert-butyl ester]
157	CC(C)(C)OC(=O)N1CCC(N(C(=O)c2cnc(-c3ccc(C(=O)NCc4ccccn4)cc3)nc2)C2CC2)CC1 [Example 224, 4-[Cyclopropyl-(2-{4-[(pyridin-2-ylmethyl)-carbamoyl]-phenyl}-pyrimidine-5-carbonyl)-amino]-piperidine-1-carboxylic acid tert-butyl ester]
